The source of these data is ChEMBL document CHEMBL1201862, “PubChem BioAssay data set” (2004).

Experiment [1] can be described thus: fluconazole-exposed Candida albicans growth modulators – fluorescence, retest, confirmation (AID 2467). It counts as functional, cell-based.
A short description of experiment [2]: NIH-3T3 fibroblast cytotoxicity, dose response, cytotoxicity control, cell-based, fluorescence, Alamar Blue, secondary assay (AID 2327).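 Note: NIH-3T3 mouse fibroblasts cultured with fluconazole at 8 µg/mL.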 It counts as functional.
A further experiment addresses T1, Protein RecA (Mycobacterium tuberculosis, UniProt P9WHJ3).
T1 sequence (P9WHJ3 whole entry): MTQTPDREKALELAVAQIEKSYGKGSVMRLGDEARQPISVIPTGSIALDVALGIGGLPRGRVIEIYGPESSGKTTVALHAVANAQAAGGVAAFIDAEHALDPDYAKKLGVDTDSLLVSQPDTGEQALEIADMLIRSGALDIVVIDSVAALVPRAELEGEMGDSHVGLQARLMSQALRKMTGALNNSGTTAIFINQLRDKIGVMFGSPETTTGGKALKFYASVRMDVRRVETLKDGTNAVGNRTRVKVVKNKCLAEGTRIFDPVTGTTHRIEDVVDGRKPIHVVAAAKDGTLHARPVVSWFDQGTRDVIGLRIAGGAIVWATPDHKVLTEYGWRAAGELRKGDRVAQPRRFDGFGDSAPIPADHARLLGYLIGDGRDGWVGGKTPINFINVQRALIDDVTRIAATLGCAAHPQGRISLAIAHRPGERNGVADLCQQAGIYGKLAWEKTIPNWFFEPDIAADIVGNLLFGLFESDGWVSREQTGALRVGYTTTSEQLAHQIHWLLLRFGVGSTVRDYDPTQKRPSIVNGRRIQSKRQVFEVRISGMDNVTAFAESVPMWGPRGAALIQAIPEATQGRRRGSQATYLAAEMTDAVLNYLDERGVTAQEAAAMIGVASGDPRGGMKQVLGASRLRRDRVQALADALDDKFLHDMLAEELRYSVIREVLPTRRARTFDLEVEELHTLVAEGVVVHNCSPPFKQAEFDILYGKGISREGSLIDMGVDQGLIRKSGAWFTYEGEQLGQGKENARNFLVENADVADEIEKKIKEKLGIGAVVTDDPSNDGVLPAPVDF
Briefly: Fluorescence Cell-Free Homogeneous Dose Retest to Identify Inhibitors of RecA-Intein Splicing Activity. [Related pubchem assays (depositor defined):AID2097, AID2223, AID489010, AID492950]. It is filed as functional.

The next experiment is described as follows: cells. It is filed as functional.
For experiment [3], the target named is T2, Replicative DNA helicase DnaB (Mycobacterium tuberculosis, UniProt P9WMR3).
T2 sequence (P9WMR3 whole entry): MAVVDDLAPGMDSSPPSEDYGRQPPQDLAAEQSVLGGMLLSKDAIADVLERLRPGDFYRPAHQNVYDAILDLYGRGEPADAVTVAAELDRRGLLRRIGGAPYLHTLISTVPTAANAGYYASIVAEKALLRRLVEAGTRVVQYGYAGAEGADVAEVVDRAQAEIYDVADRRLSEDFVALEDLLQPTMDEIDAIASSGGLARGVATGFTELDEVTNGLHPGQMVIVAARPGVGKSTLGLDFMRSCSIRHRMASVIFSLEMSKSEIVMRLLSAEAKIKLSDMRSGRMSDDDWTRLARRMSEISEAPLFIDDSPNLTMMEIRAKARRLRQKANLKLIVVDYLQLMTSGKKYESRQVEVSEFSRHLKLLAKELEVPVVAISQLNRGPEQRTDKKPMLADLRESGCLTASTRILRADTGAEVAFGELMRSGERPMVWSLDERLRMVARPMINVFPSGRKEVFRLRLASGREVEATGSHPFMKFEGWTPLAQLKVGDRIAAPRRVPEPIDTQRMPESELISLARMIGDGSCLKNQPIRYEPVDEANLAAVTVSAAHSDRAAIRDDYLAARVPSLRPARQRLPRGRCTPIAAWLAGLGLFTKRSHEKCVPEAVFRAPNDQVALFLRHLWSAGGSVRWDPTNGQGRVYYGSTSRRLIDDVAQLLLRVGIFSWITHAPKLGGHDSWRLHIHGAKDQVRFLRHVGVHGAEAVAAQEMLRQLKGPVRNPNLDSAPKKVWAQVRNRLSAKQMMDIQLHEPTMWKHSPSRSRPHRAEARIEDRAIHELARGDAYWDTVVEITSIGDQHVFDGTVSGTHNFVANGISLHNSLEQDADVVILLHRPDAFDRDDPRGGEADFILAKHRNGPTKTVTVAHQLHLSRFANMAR
Briefly: DnaB intein splicing inhibitors, dose response, biochemical, cell-free fluorescence (AID 449749). It counts as functional.

The target in a further experiment is T3, Protein skinhead-1 (Caenorhabditis elegans, UniProt P34707).
T3 sequence (P34707 whole entry): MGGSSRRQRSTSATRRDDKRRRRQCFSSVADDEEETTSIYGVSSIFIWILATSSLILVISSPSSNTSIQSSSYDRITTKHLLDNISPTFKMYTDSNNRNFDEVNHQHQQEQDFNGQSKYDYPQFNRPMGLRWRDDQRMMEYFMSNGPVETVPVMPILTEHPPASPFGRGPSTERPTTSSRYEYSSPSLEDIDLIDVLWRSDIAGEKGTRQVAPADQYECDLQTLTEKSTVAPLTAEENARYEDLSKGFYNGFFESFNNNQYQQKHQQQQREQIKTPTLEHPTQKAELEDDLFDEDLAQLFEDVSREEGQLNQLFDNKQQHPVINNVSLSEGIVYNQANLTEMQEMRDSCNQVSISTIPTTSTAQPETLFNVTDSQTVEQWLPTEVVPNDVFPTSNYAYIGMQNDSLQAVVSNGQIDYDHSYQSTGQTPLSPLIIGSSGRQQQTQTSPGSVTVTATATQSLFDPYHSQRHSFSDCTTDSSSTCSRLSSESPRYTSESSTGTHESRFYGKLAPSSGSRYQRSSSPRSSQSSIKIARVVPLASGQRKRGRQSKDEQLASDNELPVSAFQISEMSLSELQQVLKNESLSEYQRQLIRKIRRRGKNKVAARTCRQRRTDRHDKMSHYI
It counts as functional.

A further experiment addresses Cytochrome P450 2C19 (Homo sapiens, UniProt P33261). Briefly: Cytochrome panel assay with activity outcomes. Panel member name: p450-cyp2c19 Compounds with AC50 equal or less than 10 uM are considered active. It counts as functional. The conditions noted are these: read-out: AC50.
The next experiment deals with Cytochrome P450 2D6 (Homo sapiens, UniProt P10635).
Chain of Cytochrome P450 2D6 (P10635 whole entry): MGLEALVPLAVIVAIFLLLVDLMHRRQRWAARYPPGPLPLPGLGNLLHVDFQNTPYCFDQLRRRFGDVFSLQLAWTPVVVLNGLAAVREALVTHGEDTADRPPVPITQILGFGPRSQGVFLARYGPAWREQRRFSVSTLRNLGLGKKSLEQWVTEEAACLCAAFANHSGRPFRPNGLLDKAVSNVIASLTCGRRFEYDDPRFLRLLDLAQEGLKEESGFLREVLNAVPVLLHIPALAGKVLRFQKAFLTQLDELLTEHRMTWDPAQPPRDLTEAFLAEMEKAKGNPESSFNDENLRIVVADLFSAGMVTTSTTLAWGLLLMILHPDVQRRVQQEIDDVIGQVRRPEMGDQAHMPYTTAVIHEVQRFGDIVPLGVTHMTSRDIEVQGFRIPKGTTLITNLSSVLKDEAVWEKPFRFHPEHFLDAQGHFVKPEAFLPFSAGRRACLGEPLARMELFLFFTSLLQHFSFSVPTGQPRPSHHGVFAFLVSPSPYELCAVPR
Experiment [4] is described as follows: microbe, parasite or virus in culture. It counts as functional. Particulars: Mycobacterium tuberculosis.
A short description of experiment [5]: Trypanosoma cruzi growth suppression in host cells – NIH3T3 host cells, beta-gal luminescence, confirmation (AID 2044).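 Note: intracellular parasites grown in NIH/3T3 mouse fibroblasts as host cells; luminescent beta-galactosidase reporter signal from transgenic T. cruzi replicating inside host cells; inhibitors lower the luminescence signal.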 It counts as functional, cell-based.
Experiment [6] can be described thus: NIH3T3 cell viability loss – ATP luminescence, mouse fibroblasts, counter-screen, dose response (AID 2010).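 Note: cells exposed to compound for about 90 hours before reading.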 It is filed as functional, cell-based. For orientation: A counterscreen serves to expose hits that act by an unwanted route or on another target.
The next experiment has as its target Cytochrome P450 3A4 (Homo sapiens, UniProt P08684).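 Note: CYP3A4 tested as one member of a cytochrome P450 panel screen.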
Another experiment concerns the target Cytochrome P450 2C9 (Homo sapiens, UniProt P11712).
A short description of experiment [7]: viability of uninfected HEp-2 cells – cell-based, HTS, cytotoxicity control for RSV inhibitor project, dose response (AID 2410). It counts as functional. The conditions noted are these: human respiratory syncytial virus.
The next experiment has as its target T4, Streptokinase A (Streptococcus pyogenes serotype M1, UniProt P10520).
T4 sequence (P10520 whole entry): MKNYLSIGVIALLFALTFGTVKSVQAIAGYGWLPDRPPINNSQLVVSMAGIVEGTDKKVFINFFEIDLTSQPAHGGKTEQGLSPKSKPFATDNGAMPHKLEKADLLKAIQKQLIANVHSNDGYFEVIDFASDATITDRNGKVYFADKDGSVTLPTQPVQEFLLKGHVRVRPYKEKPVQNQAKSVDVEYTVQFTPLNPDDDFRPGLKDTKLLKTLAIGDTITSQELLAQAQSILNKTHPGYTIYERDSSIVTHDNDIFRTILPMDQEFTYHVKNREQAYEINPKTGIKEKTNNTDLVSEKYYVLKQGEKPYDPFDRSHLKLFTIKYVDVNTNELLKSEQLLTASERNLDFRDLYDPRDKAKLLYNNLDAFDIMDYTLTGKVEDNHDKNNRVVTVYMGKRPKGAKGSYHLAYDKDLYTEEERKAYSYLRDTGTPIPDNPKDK
Briefly: viability-normalized secreted streptokinase activity reduction – plasminogen activation absorbance, OD405, dose response (AID 1914).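 Note: secreted streptokinase activity via plasminogen activation per viability signal from cell pellet.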 It counts as functional, Streptococcus pyogenes M1 GAS.

The test system of experiment [8] is Streptococcus sp. 'group A'. Briefly: Streptococcus pyogenes SK(-)GAS viability under kanamycin – luminescence, BacTiterGlo, confirmation, counter-screen for streptokinase expression inhibitor project, dose response (AID 1900). It counts as functional, organism-based.
For the next experiment, the system named is Streptococcus. Briefly: GAS UMAA2166 growth inhibition – luminescence, BacTiterGlo, counter-screen for streptokinase expression inhibitor project, dose response (AID 1915).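 Note: potency for reduction of bacterial viability or growth.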 It counts as functional, organism-based.
Experiment [9] can be described thus: loss of viability in HepG2 cells – cell-based, CellTiter-Glo, cherry-picked, cytotoxicity control for Shn3 inhibitor project, dose response (AID 624134). It is filed as functional.
Experiment [10] can be described thus: reduction of Shn3 3'UTR-driven luciferase in osteoblasts – cell-based, Clone20 osteoblasts, firefly luciferase, cherry-picked, dose response (AID 624132).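 Note: firefly luciferase luminescence from reporter carrying the Shn3 3'UTR in osteoblasts.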 It is filed as functional.

Calls of active or inactive are those of the source.

Usually EC50 stands for the concentration that produces a half-maximal response. What is called IC50 is the concentration at which inhibition is half-maximal. For orientation: AC50 means the concentration giving half of the maximal activity seen.

Chain of Cytochrome P450 3A4 (P08684 whole entry): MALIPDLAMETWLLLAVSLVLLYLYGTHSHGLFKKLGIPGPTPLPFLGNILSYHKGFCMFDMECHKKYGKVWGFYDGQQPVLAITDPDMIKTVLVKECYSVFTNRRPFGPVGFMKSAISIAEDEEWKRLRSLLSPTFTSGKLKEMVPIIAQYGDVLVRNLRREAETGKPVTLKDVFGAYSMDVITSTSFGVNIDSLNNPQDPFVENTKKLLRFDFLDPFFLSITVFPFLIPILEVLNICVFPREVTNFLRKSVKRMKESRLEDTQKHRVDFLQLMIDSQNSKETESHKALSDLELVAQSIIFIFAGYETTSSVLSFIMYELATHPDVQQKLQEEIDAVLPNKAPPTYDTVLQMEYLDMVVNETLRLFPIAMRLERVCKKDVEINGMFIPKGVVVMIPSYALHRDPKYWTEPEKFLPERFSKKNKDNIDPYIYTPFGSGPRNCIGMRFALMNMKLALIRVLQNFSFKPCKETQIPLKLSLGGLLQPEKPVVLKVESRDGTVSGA
Chain of Cytochrome P450 2C19 (P33261 whole entry): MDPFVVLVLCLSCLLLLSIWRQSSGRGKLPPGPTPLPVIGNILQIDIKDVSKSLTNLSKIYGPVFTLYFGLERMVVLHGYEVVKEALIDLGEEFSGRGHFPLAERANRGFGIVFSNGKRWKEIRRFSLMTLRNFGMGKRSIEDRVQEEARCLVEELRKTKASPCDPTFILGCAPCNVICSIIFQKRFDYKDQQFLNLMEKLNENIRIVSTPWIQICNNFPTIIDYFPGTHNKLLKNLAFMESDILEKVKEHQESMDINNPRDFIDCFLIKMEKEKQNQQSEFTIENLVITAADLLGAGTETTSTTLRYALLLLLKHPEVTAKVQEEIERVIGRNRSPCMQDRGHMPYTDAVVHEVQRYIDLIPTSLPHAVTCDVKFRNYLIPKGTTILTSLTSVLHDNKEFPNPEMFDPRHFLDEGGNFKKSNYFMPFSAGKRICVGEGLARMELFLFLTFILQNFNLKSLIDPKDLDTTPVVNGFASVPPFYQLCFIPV
Chain of Cytochrome P450 2C9 (P11712 whole entry): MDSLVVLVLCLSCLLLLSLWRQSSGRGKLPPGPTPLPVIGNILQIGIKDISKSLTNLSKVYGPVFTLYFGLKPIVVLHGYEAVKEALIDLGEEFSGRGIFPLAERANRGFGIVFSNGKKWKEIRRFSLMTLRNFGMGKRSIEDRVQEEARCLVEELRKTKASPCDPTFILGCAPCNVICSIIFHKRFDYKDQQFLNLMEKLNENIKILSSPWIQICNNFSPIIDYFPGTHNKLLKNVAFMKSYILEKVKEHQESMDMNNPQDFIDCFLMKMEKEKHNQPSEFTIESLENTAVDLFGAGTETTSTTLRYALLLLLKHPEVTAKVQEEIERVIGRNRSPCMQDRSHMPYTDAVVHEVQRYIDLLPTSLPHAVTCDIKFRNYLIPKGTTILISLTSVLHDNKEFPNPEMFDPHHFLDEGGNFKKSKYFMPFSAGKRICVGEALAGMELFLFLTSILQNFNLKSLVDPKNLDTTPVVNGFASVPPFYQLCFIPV

For the molecule `Fc1ccc2c(c1)C(c1ccncc1)=NNC(c1cccnc1)=N2`, the EC50 in [1] is 2.26 µM (active); in experiment [2], > 160 µM (inactive). As to `Cc1n[nH]c2c1C(c1ccc(OC(=O)c3ccco3)cc1)C(C#N)=C(N)O2` (stereo not given), at Protein RecA, the EC50 is 3.62 µM (active). Also, in “cells”, the half-inhibitory concentration (IC50) was 35.2 µM (active). In addition, the AC50 in [3] is 9.43 µM (active).

For the molecule `Clc1ccc(-c2cc(CSc3cccc(Cl)c3)on2)cc1`, the IC50 on Protein skinhead-1 is 59.2 µM (inactive). With `O=C(NCC1CC1)c1ccc(-c2cn[nH]c2)c2ccoc12`, on Protein skinhead-1, the IC50 was 100 µM (inactive). As to `CCOc1ccc(NC(=O)CCC(=O)N/N=C/c2ccc3c(c2)OCO3)cc1`, the half-maximal effective concentration (EC50) in [1] was > 38 µM (not active); in [2] it was > 150 µM (inactive). As for `CCOC(=O)C(Cc1cc(C(C)=O)ccc1OCC)C(=O)OCC`, the IC50 at Protein skinhead-1 is > 100 µM (inactive). Regarding `CC(C)(C)/C(O)=C/c1nc2ccccc2oc1=O`, the IC50 in “cells” was 3.06 µM (active).

Consider `COc1ccc(N(CC(=O)NC2CCCCC2)C(=O)CNC(=O)c2cccs2)cc1`, for which the IC50 at Protein skinhead-1 is > 100 µM (inactive). `CCOC(=O)Nc1cccc(OCC(=O)Nc2ccccc2OC)c1`: the IC50 in the experiment “cells” was > 50 µM (active). In the case of `CNc1ncnc2ccc(-c3ccccc3OC)cc12`, the AC50 was 31.6 µM (inconclusive) at Cytochrome P450 2C19 and 25.1 µM (inconclusive) on Cytochrome P450 2D6. For the molecule `Cc1cnc(CNc2nc(-c3ccoc3)nc3ccccc23)cn1`, at Cytochrome P450 2D6, the AC50 was 20 µM (inconclusive). Still for that read-out and setting: in the case of `O=C1c2ccccc2C(=O)N1CCCSc1ccccc1` it was 3.16 µM (inconclusive).

For `c1ccc(CC2CCN(C3=Nc4cccc5cccc3c45)CC2)cc1`, the CC50 in [4] is > 40 µM (active). Moreover, the concentration giving a half-maximal response (EC50) in [5] is 935 nM (active); in experiment [6], > 30 µM (not active); in [1], 4.58 µM (active); in experiment [2], 73.9 µM (active). As for `CCCn1cnc2c(SCc3ccc(Cl)cc3)nc(N)nc21`, the AC50 at Cytochrome P450 3A4 was 6.31 µM (inconclusive); on Cytochrome P450 2C9 it was 6.31 µM (inconclusive); at Cytochrome P450 2D6, 3.16 µM (inconclusive). In the case of `CC(C)C(CCNC(=O)CC(Cc1ccccc1)c1ccco1)c1ccco1` (stereo not given), the half-maximal activity concentration (AC50) is 0.631 µM (inconclusive) at Cytochrome P450 2C19, 39.8 µM (inconclusive) on Cytochrome P450 3A4 and 5.62 µM (inconclusive) on Cytochrome P450 2D6. For the molecule `Cc1nc2ccccc2cc1OCc1ccccc1`, the values for the EC50 in experiment [1] and in experiment [2] were 3.26 µM (active) and > 160 µM (inactive), respectively. Take `Cc1cc(C)c2ccc3c(C)c(C)[nH]c3c2n1`: on Protein skinhead-1, the concentration for half-maximal inhibition (IC50) was < 3.13 µM (active). Same read-out and setting: next, `COC(=O)C1=C(CN2CCSCC2)NC(=O)NC1c1cc(C)ccc1C` (stereo not given): > 100 µM (inactive).

For the molecule `CC(C)COc1ccc(-c2nnc(-c3ccco3)o2)cc1`, on Protein skinhead-1, the IC50 was > 100 µM (inactive). The same measure, in the same setting: in the case of `Clc1ccc(-c2csc(N3CCSCC3)n2)cc1` it was > 100 µM (inactive). As to `CSc1cccc(NC(=O)Nc2ccc(Cl)cc2)c1`, the half-maximal activity concentration (AC50) was 14.1 µM (inconclusive) on Cytochrome P450 3A4 and 3.55 µM (inconclusive) at Cytochrome P450 2D6. For the molecule `CN1c2ccsc2/C(=N/Nc2ccccc2)CS1(=O)=O`, the IC50 in the experiment “cells” was 37 µM (active). For the same molecule, the CC50 in [7] is > 50 µM (active). Besides, the concentration giving a half-maximal response (EC50) is 4.12 µM (active) at Streptokinase A, 2.34 µM (active) in experiment [8] and 16.1 µM (active) in the experiment on Streptococcus.

For the molecule `CCOC(=O)CN(C(=O)CNC(=O)c1cccs1)C(C(=O)NC1CCCCC1)c1cccs1` (stereo not given), the IC50 on Protein skinhead-1 is > 100 µM (inactive). With `Cc1ccc(S(=O)(=O)N2CCC3(CC2)OCCN3S(=O)(=O)c2c(C)cc(C)cc2C)cc1`, the concentration at half-maximal activity (AC50) in [9] was 56.1 µM (active); in experiment [10], 6.81 µM (active).

`COc1cccc(Cn2c(=O)c(-c3cccs3)nc3cncnc32)c1`: at Cytochrome P450 2D6, the AC50 is 6.31 µM (inconclusive).
